The source of these data is article PMC6693780, “Triazoloquinazolines as a new class of potent α-glucosidase inhibitors: in vitro evaluation and docking study” (PLoS ONE, 2019).

Values joined by “and” are separate entries in the source; they are usually repeats but may differ in a detail not shown here. Identical values can stand only once.

For this experiment, the target named is α-glucosidase enzyme from Saccharomyces cerevisiae type 1. Description: α-Glucosidase inhibitory assay (p-NPG substrate, absorbance at 405 nm). The note with it: for IC50: S. cerevisiae α-glucosidase type 1, p-NPG 2 mM, pH 6.5, 37°C, 30 min, triplicate; for times more potent than acarbose: ratio of IC50 values versus acarbose; for inhibition of α-glucosidase (not screened for IC50): screening, concentration not given. In kind it is biochemical. The protocol: For phosphate-buffered saline (PBS), NaH₂PO₄ (1.4 g), NaCl (8 g), KCl (0.2 g), and KH₂PO4 (0.2 g) were dissolved in deionized H2O (1 L) at 20°C. Using NaOH (1M) and HCl (1M), the pH of the solution was adjusted to 6.5 at 20°C. p-Nitrophenyl-α-D-glucopyranoside (2 mM) (p-NPG-substrate) was prepared by dissolving p-NPG (6 mg) in buffer solution (10 mL). α-Glucosidase enzyme Type 1, lyophilized powder (Sigma-Aldrich) from Saccharomyces cerevisiae (a mixture of MAL12 and MAL32) was employed. The enzyme solution was prepared by dissolving 1 mg of in 1000 μL of cold PBS (pH 6.5). Subsequently, 50 μL of α-glucosidase enzyme solution was mixed with cold buffered saline (12 mL) to a concentration of 0.125 unit/mL. For sample screening, a solution of 200 μg/mL concentration was prepared in 100% DMSO, and then subjected to two-fold serial dilution in 5% DMSO in a 96-well microplate to obtain concentrations of 100, 50, 25, 12.5, 6.25, 3.13, and 1.56 μg/mL. The samples were screened using Epoch 2 Microplate Spectrophotometer from BioTek. To each well of the 96-well microplate, 10 μL of DMSO (5%) was added. The stock solution (10 μL) was added to the first well and mixed. Then, 10 μL of sample was withdrawn from the first well and added to the second well, and the process was repeated for two-fold serial dilution. Subsequently, 20 μL of α-glucosidase enzyme, 40 μL of PBS (pH 6.5), and 20 μL of deionized H2O were added to each well of the 96-well microtiter plate with constant stirring. The plate was pre-incubated at 37°C for 10 min, and then 10 μL of p-NPG (2 mM) solution was added to the mixture; its absorbance at 0 min was measured at a wavelength of 405 nm. The reaction mixture was incubated at 37°C for 30 min, and subsequently, its absorbance was measured. […] The experiment was performed in triplicate. According to a previously described methodology, the α-glucosidase inhibitory activity was determined and the inhibition (%) of this activity was calculated using the following equation: %inhibition=(A30min−A0min)control−(A30min−A0min)exp/(A30min−A0min)control×100

With `CSc1nc2[nH]c(=O)c3ccccc3n2n1` [Compound 1], 155.9 ± 1.36 µM corresponded to half-maximal inhibition (IC50). On the same count and under the same terms, the same measure for `CS(=O)(=O)c1nc2[nH]c(=O)c3ccccc3n2n1` [Compound 2]: 180 µM; for `O=c1[nH]c2nc(Oc3ccccc3)nn2c2ccccc12` [Compound 3]: 83.9 ± 5.12 µM. For `CCn1c(=O)c2ccccc2n2nc(SC)nc12` [Compound 4], the IC50 (commonly the point on the concentration scale where inhibition reaches its midpoint) worked out at 45.6 ± 4.28 µM and the “times more potent than acarbose” value is given as around 3. With `C=CCn1c(=O)c2ccccc2n2nc(SC)nc12` [Compound 5], the half-inhibitory concentration (IC50) was 45.6 µM and 72.3 µM. On to `CSc1nc2n(Cc3ccc([N+](=O)[O-])cc3)c(=O)c3ccc(C)cc3n2n1` [Compound 6], for which the “inhibition of α-glucosidase (not screened for IC50)” value is “less than 50%”. Further, the “% inhibition of α-glucosidase” value (at 0.28 μM) is 16.24% inhibition at 0.28 μM. Turning to `CCn1c(=O)c2ccccc2n2nc(S(C)(=O)=O)nc12` [Compound 7], the “inhibition of α-glucosidase (not screened for IC50)” value is recorded as “less than 50%”. Also, the “% inhibition of α-glucosidase” value (at 0.34 μM) was determined as 19.15% inhibition at 0.34 μM. For `C=CCn1c(=O)c2ccccc2n2nc(S(C)(=O)=O)nc12` [Compound 8], half-maximal inhibition (IC50) was put at 28.5 ± 1.22 µM and the “times more potent than acarbose” value is on record as around 5. In the case of `O=c1c2ccccc2n2nc(Oc3ccccc3)nc2n1Cc1ccc([N+](=O)[O-])cc1` [Compound 9], the “% inhibition of α-glucosidase” value (at 0.24 μM) was determined as 16.89% inhibition at 0.24 μM.

For the molecule `Cc1ccc2c(=O)n(Cc3ccc(C#N)cc3)c3nc(Oc4ccccc4)nn3c2c1` [Compound 10], the “% inhibition of α-glucosidase” value (at 0.25 μM) is reported as 14.83% inhibition at 0.25 μM. With `Cc1ccc2c(=O)n(Cc3ccc([N+](=O)[O-])cc3)c3nc(Oc4ccccc4)nn3c2c1` [Compound 11], the “% inhibition of α-glucosidase” value (at 0.23 μM) was 19.52% inhibition at 0.23 μM.

`O=c1c2ccccc2n2nc(Oc3ccccc3)nc2n1CCN1CCCCC1` [Compound 12] yielded an IC50 of 97.53 ± 0.94 µM.

As to `Cc1ccc2c(=O)n(Cc3cccc(C#N)c3)c3nc(Oc4ccccc4)nn3c2c1` [Compound 13], the “inhibition of α-glucosidase (not screened for IC50)” value is recorded as “less than 50%”. For the same molecule, the “% inhibition of α-glucosidase” value (at 0.21 μM) worked out at 27.93% inhibition at 0.21 μM. `O=C1c2ccccc2C(=O)N1CCn1c(=O)c2ccccc2n2nc(Oc3ccccc3)nc12` [Compound 14]: the IC50 was 12.7 ± 1.87 µM and the “times more potent than acarbose” value was “approximately 12”.
